pIC50: −log10 of the molar value. Read-outs that look alike come from different tables or passages of the source. Numbered stars: 1 amine (or outer) side, 2 acyl side, 3 side chain; on linkers, the order of the positions; unused ones are H or OH. Square brackets hold non-standard residues; d marks the D form. Peptide text beside a SMILES is read from it. ξ: configuration not given here. X1 = CN(C(Cc1cn(Cc2ccc(Br)cc2)c2ccccc12)C(=O)[*:2])[*:1]; ξAla(CF3) = NC(CC(F)(F)F)C(=O)O; X2 = N#CCCC(O[*:1])C(=O)[*:2]; NMeL = CN[CH](CC(C)C)C(=O)O; NMeA = CN[CH](C)C(=O)O
How the values were obtained:
[1] = biological target: T1, Sec61 (Homo sapiens, UniProt P61619); assay: signal peptide-GLuc (SP-GLuc) reporter panel, 89 constructs; type: cell-based; conditions: for pIC50: 89 signal peptide-GLuc reporters, 24 h; for IC50: read-out: log10(IC50 8445) (converted)
T1 construct: endogenous in cells
Source text: The heat map depicts IC50 values calculated from each SP-GLuc dose–response curve. d, Arthritis was induced in BALB/c mice with antibodies specific for type II collagen (mAb) on day 0 and endotoxin on day 3. On day 4, when the disease was present in all animals, mice were randomized and treated for 2 weeks with thrice weekly (QODx3) or weekly (QW) intravenous administration of vehicle or KZR-8445 or intraperitoneal administration of dexamethasone. Clinical scores (0–4 per paw; n = 10 per group) and body weights were followed until day 14. Data are presented as mean values ± s.d. mAb, monoclonal antibody. Source data
To investigate the effects of KZR-8445 on secretory and membrane protein biogenesis and to establish Sec61α as the relevant target, we quantified the secretion of a doxycycline-inducible Gaussia luciferase (GLuc) reporter fused to the C-terminus of two full-length pro-inflammatory cytokines, interleukin-2 (IL-2) (which contains a cleavable signal peptide) and tumor necrosis factor-alpha (TNFα) (which contains an N-terminal transmembrane anchor). […] KZR-8445 is structurally related to CT8, which discriminates among Sec61 clients based largely on their N-terminal signal peptide. […] We also directly compared KZR-8445 to mycolactone A/B, a structurally distinct and relatively client-nonselective Sec61 inhibitor[8],[25], for their ability to discriminate between vascular cell adhesion molecule (VCAM) and preprolactin (pPL) signal peptides.
Target sequence in this assay (P61619 whole entry): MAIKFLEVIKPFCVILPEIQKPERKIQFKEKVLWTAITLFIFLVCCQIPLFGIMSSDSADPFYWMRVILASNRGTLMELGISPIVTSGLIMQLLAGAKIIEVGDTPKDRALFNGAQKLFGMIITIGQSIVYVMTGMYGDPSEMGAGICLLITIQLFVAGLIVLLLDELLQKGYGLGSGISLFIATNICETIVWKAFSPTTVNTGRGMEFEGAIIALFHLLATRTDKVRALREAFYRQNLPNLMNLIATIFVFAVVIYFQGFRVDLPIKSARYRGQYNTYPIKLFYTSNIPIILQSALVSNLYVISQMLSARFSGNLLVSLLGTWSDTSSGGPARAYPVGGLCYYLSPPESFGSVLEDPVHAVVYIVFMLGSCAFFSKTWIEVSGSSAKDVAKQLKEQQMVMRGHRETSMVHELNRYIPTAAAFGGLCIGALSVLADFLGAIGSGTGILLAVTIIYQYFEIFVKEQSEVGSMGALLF
Target sequence in this assay (P60059 whole entry, further chain): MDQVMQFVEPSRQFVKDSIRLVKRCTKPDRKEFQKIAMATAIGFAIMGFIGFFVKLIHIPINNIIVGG
Target sequence in this assay (P60468 whole entry, further chain): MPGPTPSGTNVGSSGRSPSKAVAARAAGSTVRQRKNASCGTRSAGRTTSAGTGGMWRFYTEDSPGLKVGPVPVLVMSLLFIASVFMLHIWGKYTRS

[2] = biological target: T1, Sec61; assay: cell-based; conditions: 24 h, range in brackets
Target sequence in this assay (P60059 whole entry): as the sequence (P60059 whole entry, further chain) above
Target sequence in this assay (P61619 whole entry): as the sequence (P61619 whole entry) above
Target sequence in this assay (P60468 whole entry, further chain): as the sequence (P60468 whole entry, further chain) above

[3] = biological target: Sec61α Q294A (Canis lupus familiaris, UniProt P38377, Q294A); assay: Luciferase reporter assay in HEK293 cells expressing Sec61α Q294A; design: remaining activity: dose or concentration left out as unconfirmed; conditions: HEK293, 24 h, read-out: luciferase reporter activity (% of no-drug control), Q294A
Sec61α Q294A, sequence (P60059 whole entry): as the sequence (P60059 whole entry, further chain) above
Sec61α Q294A, sequence (P38377 whole entry Q294A): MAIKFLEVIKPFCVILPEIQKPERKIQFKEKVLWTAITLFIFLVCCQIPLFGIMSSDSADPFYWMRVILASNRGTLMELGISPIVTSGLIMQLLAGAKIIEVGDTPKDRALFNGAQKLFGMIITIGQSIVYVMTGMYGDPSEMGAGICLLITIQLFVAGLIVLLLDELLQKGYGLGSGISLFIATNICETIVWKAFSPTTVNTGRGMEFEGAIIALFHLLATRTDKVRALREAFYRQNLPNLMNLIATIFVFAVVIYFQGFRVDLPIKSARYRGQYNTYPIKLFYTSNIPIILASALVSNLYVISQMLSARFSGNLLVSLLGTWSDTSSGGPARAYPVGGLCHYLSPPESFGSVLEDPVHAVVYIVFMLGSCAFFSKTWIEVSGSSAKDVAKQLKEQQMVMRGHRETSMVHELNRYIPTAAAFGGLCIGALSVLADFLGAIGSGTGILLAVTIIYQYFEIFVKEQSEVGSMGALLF
Sec61α Q294A, sequence (P60468 whole entry, further chain): as the sequence (P60468 whole entry, further chain) above
Description: Data are mean values ± s.d. from n = 2 independent experiments.
HEK293T cells (0.3 × 10^6) were seeded per well of a six-well plate and incubated at 37 °C in 5% CO2 for 24 h to adhere. Each of the two wells was transfected with 1 µg of plasmid encoding a luciferase with the signal peptide of either VCAM1 or pPL using PEI in a 5:1 ratio, after which cells were returned to the incubator for a further 24 h. Transfected cells were then resuspended following trypsinization, cell count estimated using a TC20 Automated Cell Counter (BioRad) and diluted to seed a 96-well flat-bottom plate with 1.6 × 10^4 cells per well. […] Cells were then incubated for a further 24 h, after which the luciferase-containing media were transferred to a clean 96-well plate and stored at −20 °C. Luciferase activity of the media was estimated using a Gaussia-GLOW Juice Luciferase Assay kit from PJK Biotech GmbH as per the manufacturer’s instructions. Luminescence was measured using an EnSpire Multimode plate reader (PerkinElmer). Background luminescence from media placed in a well with neither cells nor drug was subtracted from all values, and measurements were calculated as a percentage of luminescence intensity of a well expressing the appropriate luciferase construct in the absence of any drug. Curves were fitted, and IC50 values were calculated using GraphPad Prism 8.
WT canine Sec61 was cloned into pcDNA5/FRT/TO (Thermo Fisher Scientific), and point mutations were generated using PCR. All mutants were sequence verified. HEK293 Flp-In T-REx cells (Thermo Fisher Scientific, R78007) were cultured in Dulbecco’s modified Eagle’s medium (Gibco) supplemented with 10% FBS (Gibco) at 37 °C in a humidified 5% CO2 atmosphere. Approximately 0.3 µg of pOG44 and 1 µg of targeting construct plasmids were mixed in 250 µl of OptiMEM (Thermo Fisher Scientific, 51985-026). A total of 3 µl (3 µg) Lipofectamine3000 transfection reagent was then added to the DNA mix and incubated at room temperature for 20 min, and the whole mixture was added to the cells. Cells were exposed to 100 µg ml^−^1 hygromycin B (Invitrogen) and 10 µg ml^−^1 blasticidin for 3–4 weeks until the appearance of resistant colonies. Colonies were expanded into T75 flasks and induced with doxycycline (Sigma-Aldrich, D9891) at a concentration of 1–5 µg ml^−^1 for 48 h. Cells were collected, and total RNA was extracted followed by cDNA amplification and sequencing of Sec61 with gene-specific PCR primers to confirm. Cells were then used for the luciferase reporter assays as above.
Data are mean values ± SD and are representative of n = 2 independent experiments.

CC(C)CC1NC(=O)C(Cc2cn(Cc3ccc(Br)cc3)c3ccccc23)N(C)C(=O)C(CC(F)(F)F)NC(=O)C(CC(C)C)N(C)C(=O)C(CC(F)(F)F)NC(=O)C(CCC#N)OC(=O)C(C)N(C)C1=O (stereo not shown) [KZR-8445] (cyclo([X1]L[NMeA][X2][ξAla(CF3)][NMeL][ξAla(CF3)]); configuration not given here)
pIC50 ([1]; read-out: highest IC50 in the panel): < 4.60 | pIC50 ([1]; read-out: lowest IC50 in the panel): 8.30 | pIC50 ([1]; read-out: median IC50 of the panel): 6.44 | IC50 ([1]; ADPGK SP-GLuc): 0.54 µM | IC50 ([1]; ANGPTL3 SP-GLuc): 0.0494 µM | IC50 ([1]; APOC1 SP-GLuc): 0.135 µM | IC50 ([1]; APP SP-GLuc): 0.449 µM | IC50 ([1]; AXL SP-GLuc): 0.0138 µM | IC50 ([1]; BCAN SP-GLuc): 0.142 µM | IC50 ([1]; C1S SP-GLuc): 0.383 µM | IC50 ([1]; CALCA SP-GLuc): 0.721 µM | IC50 ([1]; CALCB SP-GLuc): 0.972 µM | IC50 ([1]; CD40 SP-GLuc): 11.3 µM | IC50 ([1]; CD47 SP-GLuc): 0.373 µM | IC50 ([1]; CD96 SP-GLuc): 0.0292 µM | IC50 ([1]; CD274 SP-GLuc): 0.0933 µM | IC50 ([1]; CDH1 SP-GLuc): 0.811 µM | IC50 ([1]; CDH2 SP-GLuc): 0.0155 µM | IC50 ([1]; CDH5 SP-GLuc): 0.076 µM | IC50 ([1]; CNPY2 SP-GLuc): 0.394 µM | IC50 ([1]; CPD SP-GLuc): 0.694 µM | IC50 ([1]; CR1L SP-GLuc): 0.0613 µM | IC50 ([1]; CSF2RB SP-GLuc): 0.652 µM | IC50 ([1]; CTLA4 SP-GLuc): 0.343 µM | IC50 ([1]; DDRGK1 SP-GLuc): 1.85 µM | IC50 ([1]; DMKN SP-GLuc): 2.63 µM | IC50 ([1]; DNAJB11 SP-GLuc): 4.36 µM | IC50 ([1]; ERBB2 SP-GLuc): 0.536 µM | IC50 ([1]; F3 SP-GLuc): 0.162 µM | IC50 ([1]; FGF23 SP-GLuc): 0.0282 µM | IC50 ([1]; FLT3 SP-GLuc): 0.36 µM | IC50 ([1]; FNDC10 SP-GLuc): 0.726 µM | IC50 ([1]; FURIN SP-GLuc): 4.74 µM | IC50 ([1]; GAS6 SP-GLuc): 0.118 µM | IC50 ([1]; HJV SP-GLuc): 0.427 µM | IC50 ([1]; HLA-G SP-GLuc): 0.0392 µM | IC50 ([1]; HSPA13 SP-GLuc): 1.11 µM | IC50 ([1]; IGF1R SP-GLuc): 0.814 µM | IC50 ([1]; IL1RAP SP-GLuc): 0.101 µM | IC50 ([1]; IL4R SP-GLuc): 0.032 µM | IC50 ([1]; IL4 SP-GLuc): 0.359 µM | IC50 ([1]; IL5RA SP-GLuc): 1.31 µM | IC50 ([1]; IL5 SP-GLuc): 1.3 µM | IC50 ([1]; IL6R SP-GLuc): 0.0923 µM | IC50 ([1]; IL6 SP-GLuc): 0.155 µM | IC50 ([1]; IL6ST SP-GLuc): 0.0565 µM | IC50 ([1]; IL7 SP-GLuc): 0.00523 µM | IC50 ([1]; IL10 SP-GLuc): 0.434 µM | IC50 ([1]; IL11 SP-GLuc): 0.183 µM | IC50 ([1]; IL12B SP-GLuc): 0.109 µM | IC50 ([1]; IL12RB1 SP-GLuc): 0.0644 µM | IC50 ([1]; IL13 SP-GLuc): 0.0591 µM | IC50 ([1]; IL15RA SP-GLuc): 0.294 µM | IC50 ([1]; IL15 SP-GLuc): 0.116 µM | IC50 ([1]; IL17A SP-GLuc): 0.318 µM | IC50 ([1]; IL17F SP-GLuc): 0.228 µM | IC50 ([1]; IL17RA SP-GLuc): 0.408 µM | IC50 ([1]; IL23A SP-GLuc): 0.425 µM | IC50 ([1]; IL23R SP-GLuc): 0.366 µM | IC50 ([1]; ITGA3 SP-GLuc): 18.3 µM | IC50 ([1]; ITGB1 SP-GLuc): > 25 µM | IC50 ([1]; ITGB3 SP-GLuc): 0.106 µM | IC50 ([1]; ITGB5 SP-GLuc): 0.0891 µM | IC50 ([1]; ITGB7 SP-GLuc): 0.228 µM | IC50 ([1]; JTB SP-GLuc): 0.0255 µM | IC50 ([1]; KRTDAP SP-GLuc): 0.57 µM | IC50 ([1]; LCN6 SP-GLuc): 0.101 µM | IC50 ([1]; LDLR SP-GLuc): 0.8 µM | IC50 ([1]; LILRB2 SP-GLuc): 1.73 µM | IC50 ([1]; LRP8 SP-GLuc): 0.681 µM | IC50 ([1]; LRRC32 SP-GLuc): > 25 µM | IC50 ([1]; MASP2 SP-GLuc): 0.127 µM | IC50 ([1]; METTL7a SP-GLuc): 6.9 µM | IC50 ([1]; NGF SP-GLuc): 0.347 µM | IC50 ([1]; P3H1 SP-GLuc): 0.0727 µM | IC50 ([1]; PCDHA4 SP-GLuc): 0.489 µM | IC50 ([1]; PCSK9 SP-GLuc): 1.28 µM | IC50 ([1]; PDCD1 SP-GLuc): 0.037 µM | IC50 ([1]; PRKCSH SP-GLuc): 0.186 µM | IC50 ([1]; PSG8 SP-GLuc): 0.292 µM | IC50 ([1]; SIRPA SP-GLuc): 2.03 µM | IC50 ([1]; SSR2 SP-GLuc): 0.137 µM | IC50 ([1]; STAB1 SP-GLuc): 0.67 µM | IC50 ([1]; SUCO SP-GLuc): 1.45 µM | IC50 ([1]; TGFB1 SP-GLuc): 2.21 µM | IC50 ([1]; TGFB2 SP-GLuc): 0.187 µM | IC50 ([1]; TGFB3 SP-GLuc): > 25 µM | IC50 ([1]; TGFBR1 SP-GLuc): 0.134 µM | IC50 ([1]; TIGIT SP-GLuc): 0.59 µM | IC50 ([1]; TMED10 SP-GLuc): 0.462 µM | IC50 ([1]; UCN SP-GLuc): 5.9 µM | IC50 ([2]; HER3 signal peptide-GLuc, read-out: IC50 (nM) HER3): 72 nM | IC50 ([2]; PD1 signal peptide-GLuc, read-out: IC50 (nM) PD1): 32 nM | IC50 ([2]; full-length IL-2-GLuc, read-out: IC50 (nM) IL-2): 84 nM | IC50 ([2]; full-length TNFα-GLuc, read-out: IC50 (nM) TNFα): 40 nM | IC50 ([2]; prolactin signal peptide-GLuc, read-out: IC50 (nM) Prolactin): 1070 nM | remaining activity at 0.00018303 µM ([3]; Drug nM (log10) 0.18303): 80.7% | remaining activity at 0.000660151 µM ([3]; Drug nM (log10) 0.660151): 67.2% | remaining activity at 0.00113727 µM ([3]; Drug nM (log10) 1.13727): 44.1% | remaining activity ([3]; Drug nM (log10) 1.61439): 22.4% | remaining activity ([3]; Drug nM (log10) 2.09151): 11% | remaining activity ([3]; Drug nM (log10) 2.56864): 4.26% | remaining activity ([3]; Drug nM (log10) 3.04576): 2.2% | remaining activity ([3]; Drug nM (log10) 3.52288): 1.85% | remaining activity at 0.004 µM ([3]; Drug nM (log10) 4): 2.09% | remaining activity at 0.000508 µM ([3]; Drug nM (log10) -0.29409): 89.6%
